Assay results published in ChEMBL document CHEMBL1201862, “PubChem BioAssay data set” (2004).
Active and inactive are the calls of the source. For most assays here, no stated cut-off is given here; in the data, actives have a measured EC50 and inactives only a lower limit.

What was measured:
[1] = target: T1, Replicative DNA helicase DnaB (Mycobacterium tuberculosis, UniProt P9WMR3); experiment: DnaB intein splicing inhibitors, dose response, biochemical, cell-free fluorescence (AID 449749); type: functional
T1 sequence (P9WMR3 whole entry): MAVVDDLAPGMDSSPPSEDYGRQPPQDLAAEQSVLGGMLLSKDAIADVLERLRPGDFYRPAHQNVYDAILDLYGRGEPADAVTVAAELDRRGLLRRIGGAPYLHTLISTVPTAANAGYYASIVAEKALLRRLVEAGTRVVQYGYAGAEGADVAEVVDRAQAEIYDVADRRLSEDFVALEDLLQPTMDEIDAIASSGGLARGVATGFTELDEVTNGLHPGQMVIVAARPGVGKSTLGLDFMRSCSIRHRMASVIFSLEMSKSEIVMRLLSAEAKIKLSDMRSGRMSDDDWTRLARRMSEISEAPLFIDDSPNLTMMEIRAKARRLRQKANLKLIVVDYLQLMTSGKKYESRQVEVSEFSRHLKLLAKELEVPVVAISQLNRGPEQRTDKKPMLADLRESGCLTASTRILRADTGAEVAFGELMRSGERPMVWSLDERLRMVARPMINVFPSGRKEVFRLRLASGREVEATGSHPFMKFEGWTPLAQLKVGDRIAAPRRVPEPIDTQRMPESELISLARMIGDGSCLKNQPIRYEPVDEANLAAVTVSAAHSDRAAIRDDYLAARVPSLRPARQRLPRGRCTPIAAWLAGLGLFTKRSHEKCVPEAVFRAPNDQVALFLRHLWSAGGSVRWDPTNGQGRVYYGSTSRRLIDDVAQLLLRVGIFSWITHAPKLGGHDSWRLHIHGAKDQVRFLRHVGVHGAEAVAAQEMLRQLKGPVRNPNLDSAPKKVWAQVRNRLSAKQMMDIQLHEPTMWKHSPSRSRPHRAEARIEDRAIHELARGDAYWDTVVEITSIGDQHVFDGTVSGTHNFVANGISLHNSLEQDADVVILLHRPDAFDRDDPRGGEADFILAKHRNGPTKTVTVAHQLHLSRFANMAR

Protein RecA = target: T2, Protein RecA (Mycobacterium tuberculosis, UniProt P9WHJ3); experiment: Fluorescence Cell-Free Homogeneous Dose Retest to Identify Inhibitors of RecA-Intein Splicing Activity. [Related pubchem assays (depositor defined):AID2097, AID2223, AID489010, AID492950]; type: functional
T2 sequence (P9WHJ3 whole entry): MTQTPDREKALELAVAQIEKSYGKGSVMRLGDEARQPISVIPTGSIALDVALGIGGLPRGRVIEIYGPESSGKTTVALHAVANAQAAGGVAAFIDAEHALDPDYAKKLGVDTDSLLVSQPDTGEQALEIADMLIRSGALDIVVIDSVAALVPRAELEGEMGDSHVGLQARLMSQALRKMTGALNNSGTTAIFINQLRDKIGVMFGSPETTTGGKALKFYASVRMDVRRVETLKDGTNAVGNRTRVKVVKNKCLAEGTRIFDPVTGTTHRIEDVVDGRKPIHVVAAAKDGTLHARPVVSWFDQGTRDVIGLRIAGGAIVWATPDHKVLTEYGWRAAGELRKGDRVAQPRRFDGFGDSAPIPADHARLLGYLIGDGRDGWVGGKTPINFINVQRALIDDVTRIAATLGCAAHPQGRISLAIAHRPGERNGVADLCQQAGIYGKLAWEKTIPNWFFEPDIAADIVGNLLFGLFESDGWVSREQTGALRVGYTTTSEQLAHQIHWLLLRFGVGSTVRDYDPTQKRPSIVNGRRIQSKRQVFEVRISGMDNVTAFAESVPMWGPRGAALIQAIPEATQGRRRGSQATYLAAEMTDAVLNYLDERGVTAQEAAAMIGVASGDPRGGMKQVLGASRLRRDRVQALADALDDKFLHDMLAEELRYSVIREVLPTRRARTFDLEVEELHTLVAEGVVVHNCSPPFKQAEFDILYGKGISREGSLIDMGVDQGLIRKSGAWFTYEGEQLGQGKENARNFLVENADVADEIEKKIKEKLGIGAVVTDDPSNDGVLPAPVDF

cells = type: functional
[2] = Luminescence Cell-Based Dose Confirmation HTS to Identify Activators of 5'UTR Stem-Loop Driven Alpha-Synuclein mRNA Translation in H4 Neuroglioblastoma Cells. [Related pubchem assays: 1829 (Project Summary), 1814 (Primary HTS)]; type: functional
H4 = experiment: Luminescence Cell-Based Dose Response HTS to Identify Activators of 5'UTR Stem-Loop Driven Prion Protein mRNA Translation in H4 Neuroglioblastoma Cells. [Related pubchem assays: 1829 (Project Summary), 1814 (Primary HTS)]; type: functional; settings: Homo sapiens
[3] = Luminescence Cell-Based Dose Response HTS to Identify Activators of Luciferase Translation or Activity in H4 […] Cells. [Related pubchem assays: 1829 (Project Summary), 1814 (Primary HTS)]; type: functional
Streptokinase A = target: T3, Streptokinase A (Streptococcus pyogenes serotype M1, UniProt P10520); experiment: viability-normalized secreted streptokinase activity reduction – plasminogen activation absorbance, OD405, dose response (AID 1914); type: functional, Streptococcus pyogenes M1 GAS;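 further: secreted streptokinase activity via plasminogen activation per viability signal from cell pellet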
T3 sequence (P10520 whole entry): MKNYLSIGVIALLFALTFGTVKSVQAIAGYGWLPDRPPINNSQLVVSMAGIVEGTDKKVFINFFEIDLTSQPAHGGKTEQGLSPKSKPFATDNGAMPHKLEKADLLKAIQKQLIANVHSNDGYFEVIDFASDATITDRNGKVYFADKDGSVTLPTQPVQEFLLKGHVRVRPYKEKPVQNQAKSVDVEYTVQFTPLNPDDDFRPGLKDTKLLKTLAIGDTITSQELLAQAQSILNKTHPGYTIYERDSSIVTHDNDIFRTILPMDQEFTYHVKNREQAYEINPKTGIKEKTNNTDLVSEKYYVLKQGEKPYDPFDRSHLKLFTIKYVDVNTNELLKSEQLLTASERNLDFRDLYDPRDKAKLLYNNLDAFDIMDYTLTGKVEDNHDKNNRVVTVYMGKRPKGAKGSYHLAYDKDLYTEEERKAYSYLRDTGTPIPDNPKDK

[4] = system: Streptococcus sp. 'group A'; experiment: Streptococcus pyogenes SK(-)GAS viability under kanamycin – luminescence, BacTiterGlo, confirmation, counter-screen for streptokinase expression inhibitor project, dose response (AID 1900); type: functional, organism-based
Streptococcus = experiment: GAS UMAA2166 growth inhibition – luminescence, BacTiterGlo, counter-screen for streptokinase expression inhibitor project, dose response (AID 1915); type: functional, organism-based;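 further: potency for reduction of bacterial viability or growth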
Cytochrome P450 2D6 = Cytochrome P450 2D6 (Homo sapiens, UniProt P10635);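 further: CYP2D6 member of a cytochrome P450 panel assay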
Cytochrome P450 2D6, sequence (P10635 whole entry): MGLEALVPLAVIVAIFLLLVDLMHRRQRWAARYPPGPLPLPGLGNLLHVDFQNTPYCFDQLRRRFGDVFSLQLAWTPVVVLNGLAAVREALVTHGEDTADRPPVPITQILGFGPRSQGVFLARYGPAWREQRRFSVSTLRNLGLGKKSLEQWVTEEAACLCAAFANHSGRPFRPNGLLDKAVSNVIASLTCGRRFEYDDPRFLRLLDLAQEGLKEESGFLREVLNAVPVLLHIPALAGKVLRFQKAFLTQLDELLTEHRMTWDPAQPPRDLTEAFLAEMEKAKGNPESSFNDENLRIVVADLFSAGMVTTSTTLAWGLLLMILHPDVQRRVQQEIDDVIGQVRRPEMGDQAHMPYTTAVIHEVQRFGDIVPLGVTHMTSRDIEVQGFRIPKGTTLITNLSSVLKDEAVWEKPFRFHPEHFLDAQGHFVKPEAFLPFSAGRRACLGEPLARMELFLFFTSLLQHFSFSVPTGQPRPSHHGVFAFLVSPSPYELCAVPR

Cytochrome P450 3A4 = Cytochrome P450 3A4 (Homo sapiens, UniProt P08684);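 further: CYP3A4 tested as one member of a cytochrome P450 panel screen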
Cytochrome P450 3A4, sequence (P08684 whole entry): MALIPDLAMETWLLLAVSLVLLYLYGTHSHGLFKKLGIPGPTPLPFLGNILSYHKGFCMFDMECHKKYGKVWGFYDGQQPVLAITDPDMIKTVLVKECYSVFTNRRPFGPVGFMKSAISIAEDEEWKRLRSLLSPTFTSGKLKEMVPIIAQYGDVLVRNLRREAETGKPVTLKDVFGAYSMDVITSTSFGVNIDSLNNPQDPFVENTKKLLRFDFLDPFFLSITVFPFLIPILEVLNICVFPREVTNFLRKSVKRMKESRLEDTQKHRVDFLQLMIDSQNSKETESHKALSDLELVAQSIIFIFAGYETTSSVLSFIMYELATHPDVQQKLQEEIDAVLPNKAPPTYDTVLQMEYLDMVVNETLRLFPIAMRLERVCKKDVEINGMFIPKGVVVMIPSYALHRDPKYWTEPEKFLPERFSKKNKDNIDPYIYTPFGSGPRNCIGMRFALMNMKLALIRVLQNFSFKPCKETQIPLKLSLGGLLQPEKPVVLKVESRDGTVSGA

[5] = target: T4, Heat shock factor protein 1 (Mus musculus, UniProt P38532); experiment: decrease of HSF1-responsive luciferase luminescence – cell-based, NIH3T3, dose retest, confirmation (AID 2382); type: functional;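 further: NIH3T3 fibroblasts with HSF1-driven luciferase reporter stressed by proteasome inhibitor MG132; luminescence from HSF1-driven luciferase expression after 8 hours of MG132 stress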
T4 sequence (P38532 whole entry): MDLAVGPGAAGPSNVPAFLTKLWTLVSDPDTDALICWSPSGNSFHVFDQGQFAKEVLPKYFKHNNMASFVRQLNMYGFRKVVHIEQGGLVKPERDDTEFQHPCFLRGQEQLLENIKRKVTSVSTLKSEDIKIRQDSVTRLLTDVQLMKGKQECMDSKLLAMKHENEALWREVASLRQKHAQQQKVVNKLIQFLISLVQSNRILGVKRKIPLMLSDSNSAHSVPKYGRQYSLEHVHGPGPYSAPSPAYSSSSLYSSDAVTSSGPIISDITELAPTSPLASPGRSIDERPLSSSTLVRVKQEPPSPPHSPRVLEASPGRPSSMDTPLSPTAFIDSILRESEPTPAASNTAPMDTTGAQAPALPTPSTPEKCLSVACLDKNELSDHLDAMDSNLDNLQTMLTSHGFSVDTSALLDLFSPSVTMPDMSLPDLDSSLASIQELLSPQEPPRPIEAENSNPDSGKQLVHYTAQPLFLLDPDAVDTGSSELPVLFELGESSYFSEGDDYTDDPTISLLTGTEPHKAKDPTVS

| Compound | AC50 [1] | EC50 (Protein RecA) | EC50 [2] | EC50 (H4) | EC50 [3] | further results |
| --- | --- | --- | --- | --- | --- | --- |
| Cc1nn(-c2ccccc2)c2c1C1(C(=O)N3c4c(cccc41)C(C)CC3(C)C)C(C#N)=C(N)O2 (stereo unspecified) | 4.61 µM (active) | 3.2 µM (active) | – | – | – | – |
| O=C(Nc1c(F)cc(F)cc1Br)c1cc(-c2ccccc2)on1 | – | – | – | – | – | IC50 (cells): 4 µM (active) |
| O=[N+]([O-])c1ccc(/C=C2\CCC(C3=CCCC3)=C2N2CCOCC2)cc1 | – | – | > 120 µM (not active) | > 120 µM (not active) | > 120 µM (not active) | – |
| C(=N\Nc1nc(-c2ccccc2)cs1)/c1cccnc1 | – | – | 0.198 µM (active) | 44.1 µM (active) | 33.3 µM (active) | – |
| Cc1nc2ccccc2c2c1C(=O)N(C(C)C)C2=O | 192 µM (active) | 0.851 µM (active) | – | – | – | – |
| O=C1NC2=C(CCc3ccccc32)C(c2ccccc2)N1 (stereo unspecified) | 2.19 µM (active) | 1.67 µM (active) | – | – | – | – |
| CNC(=O)COC(=O)c1ccc(-c2nc3ccccc3s2)s1 | – | – | – | 56.3 µM (active) | 0.764 µM (active) | IC50 (cells): 5.82 µM (active) |
| Cc1nn(Cc2ccccc2)c2c1C(c1ccco1)C(C#N)=C(N)O2 (stereo unspecified) | > 380 µM (inactive) | 3.15 µM (active) | – | – | – | – |
| CCCn1c(N)c(Sc2ccc(C)cc2)c(=O)n(CCC)c1=O | – | – | > 120 µM (not active) | > 120 µM (not active) | > 120 µM (not active) | – |
| CC(C)N(Cc1nccn1C)C(=O)CCc1nnc(CCCc2ccccc2)o1 | – | – | 12.7 µM (active) | 31.2 µM (active) | 15.5 µM (active) | – |
| O=C(c1ccccc1)[C@H]1[C@H](c2ccccc2)[C@@]2(N=C(c3ccccc3)OC2=O)C2c3ccccc3C=NN21 (stereo partly specified) | – | – | 6.71 µM (active) | > 120 µM (not active) | 19 µM (active) | – |
| Cc1nn(C(=O)c2cccnc2)c(C)c1Sc1ccc(Br)cc1 | 4.61 µM (active) | 18.7 µM (active) | – | – | – | EC50 (Streptokinase A): > 150 µM (not active); EC50 [4]: 11.1 µM (active); EC50 (Streptococcus): > 150 µM (not active); AC50 (Cytochrome P450 2D6): 25.1 µM (inconclusive); AC50 (Cytochrome P450 3A4): 15.8 µM (inconclusive) |
| Cc1ccc(NC(=O)c2ocnc2C)cc1Cl | – | – | 0.145 µM (active) | 6.44 µM (active) | 1.04 µM (active) | – |
| O=C(c1ccccc1)c1c[nH]c(C(=O)C(Cl)(Cl)Cl)c1 | 21.7 µM (active) | 8.23 µM (active) | – | – | – | – |
| CCOc1ccc(-c2nc3ccccc3c(=O)o2)cc1 | – | – | – | – | – | IC50 (cells): 7.01 µM (active) |
| CSc1ccc(/C=C(/NC(=O)c2ccccc2)C(=O)N2CCN(C)CC2)cc1 | – | – | > 120 µM (not active) | > 60 µM (not active) | > 120 µM (not active) | – |
| COc1cc(/C=N/n2c(C)nnc2S)ccc1OCc1ccc(F)cc1 | – | – | > 120 µM (not active) | 32 µM (active) | > 120 µM (not active) | – |
| O=C(CSc1nnc(-c2ccccc2Cl)o1)Oc1ccc(Br)cc1 | 1.42 µM (active) | 3 µM (active) | – | – | – | – |
| O=C(NNC(=O)c1ccccc1F)c1ccc(-c2ccc(Cl)cc2)o1 | – | – | – | – | – | IC50 (cells): 8.21 µM (active) |
| O=C(Nc1cc(Cl)ccc1-n1cncn1)c1ccc([N+](=O)[O-])o1 | – | – | > 120 µM (not active) | > 120 µM (not active) | > 120 µM (not active) | EC50 (Streptokinase A): 56.7 µM (inconclusive); EC50 [4]: 11.7 µM (active); EC50 (Streptococcus): > 150 µM (not active) |
| S=C(Nc1ccc(Br)cc1Cl)N1CCC2(CC1)OCCO2 | – | – | > 120 µM (not active) | 16 µM (active) | 23.5 µM (active) | – |
| O=C(NC(NC(=S)Nc1ccc(Cl)cc1Cl)C(Cl)(Cl)Cl)c1cccc([N+](=O)[O-])c1 (stereo unspecified) | 2.33 µM (active) | 3.3 µM (active) | – | – | – | – |
| CC(C)(C)C(=O)Nc1ccc(N=Nc2ccccc2)cc1 | 4.35 µM (active) | 2.85 µM (active) | – | – | – | EC50 [5]: < 0.16 µM (active) |
| CCc1ccc(N2CCN(CCNC(=O)Nc3ccc(OC)cc3)CC2)cc1 | – | – | – | – | – | IC50 (cells): 38.2 µM (active) |
| Cc1ccnc(NC(=O)CCc2c[nH]c3ccccc23)c1 | – | – | – | – | – | IC50 (cells): 21.6 µM (active) |
| O=C(c1ccc(F)cc1)c1ccc(-c2ccc(F)cc2)nc1 | – | – | 4.41 µM (active) | 11.6 µM (active) | 11.9 µM (active) | – |
| CC(C)NC(=O)c1[nH]nc2c1CCc1ccccc1-2 | – | – | 5.26 µM (active) | 8.82 µM (active) | 56 µM (active) | – |
